Source: article PMC7951137 (ACS chemical neuroscience, 2021)
Where two headings read alike, the source gives them in different places. [ ]: non-standard residue; d: D form.

What was measured:
D189E hMC4R = D189E hMC4R (Homo sapiens, UniProt P32245, D189E); assay: cAMP AlphaScreen agonist / inverse agonist assay; type: cell-based; details: for Inverse agonist percent decrease from basal activity: D189E hMC4R
D189Q hMC4R [1] = biological target: T1, D189Q hMC4R (Homo sapiens, UniProt P32245, D189Q); assay: cAMP AlphaScreen agonist / inverse agonist assay; type: cell-based; details: for Inverse agonist percent decrease from basal activity: D189Q hMC4R
T1 sequence (P32245 whole entry D189Q): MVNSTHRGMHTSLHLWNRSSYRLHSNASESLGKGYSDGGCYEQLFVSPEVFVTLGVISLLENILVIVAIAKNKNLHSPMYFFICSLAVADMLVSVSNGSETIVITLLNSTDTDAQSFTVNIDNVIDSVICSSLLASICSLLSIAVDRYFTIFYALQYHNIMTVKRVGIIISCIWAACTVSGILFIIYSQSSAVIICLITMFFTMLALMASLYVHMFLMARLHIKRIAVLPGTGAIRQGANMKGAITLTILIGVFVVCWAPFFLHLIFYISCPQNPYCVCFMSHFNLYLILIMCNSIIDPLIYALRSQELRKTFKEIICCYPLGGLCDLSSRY

wildtype hMC4R [2] = biological target: T2, wildtype hMC4R (Homo sapiens, UniProt P32245); assay: cAMP AlphaScreen antagonist assay; type: cell-based
T2 sequence (P32245 whole entry): as the sequence (P32245 whole entry D189Q) above, with Q189D counted along it

D189Q hMC4R [3] = biological target: T1, D189Q hMC4R; assay: cAMP AlphaScreen antagonist assay; type: cell-based
D189A hMC4R = D189A hMC4R (Homo sapiens, UniProt P32245, D189A); assay: cAMP AlphaScreen antagonist assay; type: cell-based
D189A hMC4R, sequence (P32245 whole entry D189A): as the sequence (P32245 whole entry D189Q) above, with Q189A counted along it

wildtype hMC4R [4] = biological target: T2, wildtype hMC4R; assay: cAMP AlphaScreen agonist / inverse agonist assay; type: cell-based; details: WT hMC4R; basal = signal at 10^−12 M
D189N hMC4R = D189N hMC4R (Homo sapiens, UniProt P32245, D189N); assay: cAMP AlphaScreen agonist / inverse agonist assay; type: cell-based; details: for Inverse agonist percent decrease from basal activity: D189N hMC4R
D189N hMC4R, sequence (P32245 whole entry D189N): as the sequence (P32245 whole entry D189Q) above, with Q189N counted along it

D189S hMC4R = D189S hMC4R (Homo sapiens, UniProt P32245, D189S); assay: cAMP AlphaScreen agonist / inverse agonist assay; type: cell-based; details: for Inverse agonist percent decrease from basal activity: D189S hMC4R
D189S hMC4R, sequence (P32245 whole entry D189S): as the sequence (P32245 whole entry D189Q) above, with Q189S counted along it

D189K hMC4R = D189K hMC4R (Homo sapiens, UniProt P32245, D189K); assay: cAMP AlphaScreen antagonist assay; type: cell-based
D189K hMC4R, sequence (P32245 whole entry D189K): as the sequence (P32245 whole entry D189Q) above, with Q189K counted along it

[5] = biological target: T3, human melanocortin-4 receptor (hMC4R), wild type, N-terminal FLAG-tagged (human, UniProt P32245 1-332); assay: radioligand binding
T3 sequence (P32245 whole entry): as the sequence (P32245 whole entry D189Q) above, with Q189D counted along it

[6] = biological target: T3, human melanocortin-4 receptor (hMC4R), …; assay: radioligand binding; remark: listed apart in the source

D189E hMC4R, sequence (P32245 whole entry D189E): as the sequence (P32245 whole entry D189Q) above, with Q189E counted along it

C[C@@H]1NC(=O)[C@H](CO)NC(=O)[C@H](Cc2ccccc2)NC(=O)[C@H](Cc2ccccc2)NC(=O)[C@H](CCCNC(=N)N)NC(=O)[C@@H]2CCCN2C(=O)[C@H]2CCCN2C(=O)[C@H](Cc2ccccc2)NC1=O [MDE3–85c, c[Pro-Arg-Phe-Phe-Ser-Ala-Phe-DPro]]
EC50 (D189E hMC4R): 11 ± 4 nM | Inverse agonist percent decrease from basal activity (D189E hMC4R): −25% | Inverse agonist percent decrease from basal activity (D189Q hMC4R [1]): −35% | Kb (wildtype hMC4R [2]): 10 nM | Kb (D189Q hMC4R [3]): 158 nM | Kb (D189A hMC4R): 1000 nM | Inverse agonist percent decrease from basal signal (wildtype hMC4R [4]): −25% | EC50 (D189N hMC4R): 100 ± 40 nM | Inverse agonist percent decrease from basal activity (D189N hMC4R): −20% | EC50 (D189S hMC4R): 600 ± 400 nM | Inverse agonist percent decrease from basal activity (D189S hMC4R): −25% | Kb (D189K hMC4R): 501 nM

CC[C@@H]1NC(=O)[C@H](Cc2ccccc2)NC(=O)[C@H](Cc2ccccc2)NC(=O)[C@H](CCCNC(=N)N)NC(=O)[C@@H]2CCCN2C(=O)[C@H]2CCCN2C(=O)[C@H](Cc2ccccc2)NC(=O)[C@H](C)NC1=O [MDE3–119-2c, c[Pro-Arg-Phe-Phe-Abu-Ala-Phe-DPro]]
Inverse agonist percent decrease from basal signal (wildtype hMC4R [4]): −15%

C[C@@H]1NC(=O)[C@H](CCC(=O)O)NC(=O)[C@H](Cc2ccccc2)NC(=O)[C@H](Cc2ccccc2)NC(=O)[C@H](CCCNC(=N)N)NC(=O)[C@@H]2CCCN2C(=O)[C@H]2CCCN2C(=O)[C@H](Cc2ccccc2)NC1=O [MDE3–119-5c, c[Pro-Arg-Phe-Phe-Glu-Ala-Phe-DPro]]
EC50 (D189E hMC4R): 1100 nM | Inverse agonist percent decrease from basal activity (D189E hMC4R): −40% | EC50 (D189Q hMC4R [1]): 7000 nM | Inverse agonist percent decrease from basal activity (D189Q hMC4R [1]): −40% | Kb (wildtype hMC4R [2]): 100 nM | Kb (D189Q hMC4R [3]): 2000 nM | Kb (D189A hMC4R): > 3160 nM | Inverse agonist percent decrease from basal signal (wildtype hMC4R [4]): −35% | EC50 (D189N hMC4R): 3000 nM | Inverse agonist percent decrease from basal activity (D189N hMC4R): −5% | Kb (D189K hMC4R): > 3160 nM

C[C@@H]1NC(=O)[C@@H](CN)NC(=O)[C@H](Cc2ccccc2)NC(=O)[C@H](Cc2ccccc2)NC(=O)[C@H](CCCNC(=N)N)NC(=O)[C@@H]2CCCN2C(=O)[C@H]2CCCN2C(=O)[C@H](Cc2ccccc2)NC1=O [MDE3–119-7c, c[Pro-Arg-Phe-Phe-DDap-Ala-Phe-DPro]]
Inverse agonist percent decrease from basal activity (D189E hMC4R): −35% | Inverse agonist percent decrease from basal activity (D189Q hMC4R [1]): −40% | Inverse agonist percent decrease from basal signal (wildtype hMC4R [4]): −30% | Inverse agonist percent decrease from basal activity (D189N hMC4R): −15% | Inverse agonist percent decrease from basal activity (D189S hMC4R): −30%

C[C@@H]1NC(=O)[C@H](CN)NC(=O)[C@H](Cc2ccccc2)NC(=O)[C@H](Cc2ccccc2)NC(=O)[C@H](CCCNC(=N)N)NC(=O)[C@@H]2CCCN2C(=O)[C@H]2CCCN2C(=O)[C@H](Cc2ccccc2)NC1=O [MDE3–119-8c, c[Pro-Arg-Phe-Phe-Dap-Ala-Phe-DPro]]
Inverse agonist percent decrease from basal activity (D189E hMC4R): −55% | Inverse agonist percent decrease from basal activity (D189Q hMC4R [1]): −45% | Inverse agonist percent decrease from basal signal (wildtype hMC4R [4]): −50% | Inverse agonist percent decrease from basal activity (D189N hMC4R): −15% | Inverse agonist percent decrease from basal activity (D189S hMC4R): −35%

C[C@@H]1NC(=O)[C@H](C)NC(=O)[C@H](Cc2ccccc2)NC(=O)[C@H](Cc2ccccc2)NC(=O)[C@H](CCCNC(=N)N)NC(=O)[C@@H]2CCCN2C(=O)[C@H]2CCCN2C(=O)[C@H](Cc2ccccc2)NC1=O [MDE3–154c, c[Pro-Arg-Phe-Phe-Ala-Ala-Phe-DPro]]
EC50 (D189E hMC4R): 16 ± 2 nM | Inverse agonist percent decrease from basal activity (D189E hMC4R): −25% | Inverse agonist percent decrease from basal activity (D189Q hMC4R [1]): −25% | Kb (D189Q hMC4R [3]): 251 nM | Kb (D189A hMC4R): 2510 nM | Inverse agonist percent decrease from basal signal (wildtype hMC4R [4]): −35% | Kb (D189K hMC4R): 794 nM

C[C@@H]1NC(=O)[C@H](CC(N)=O)NC(=O)[C@H](Cc2ccccc2)NC(=O)[C@H](Cc2ccccc2)NC(=O)[C@H](CCCNC(=N)N)NC(=O)[C@@H]2CCCN2C(=O)[C@H]2CCCN2C(=O)[C@H](Cc2ccccc2)NC1=O [MDE5–108-10c, c[Pro-Arg-Phe-Phe-Asn-Ala-Phe-DPro]]
Inverse agonist percent decrease from basal activity (D189E hMC4R): −25% | Inverse agonist percent decrease from basal activity (D189Q hMC4R [1]): −45% | Inverse agonist percent decrease from basal signal (wildtype hMC4R [4]): −30% | Inverse agonist percent decrease from basal activity (D189N hMC4R): −20% | Inverse agonist percent decrease from basal activity (D189S hMC4R): −20%

c[Pro-Arg-Phe-Phe-His-Ala-Phe-DPro] [MDE3–119-13c]
Inverse agonist percent decrease from basal activity (D189E hMC4R): −15% | Inverse agonist percent decrease from basal activity (D189Q hMC4R [1]): −30% | Inverse agonist percent decrease from basal signal (wildtype hMC4R [4]): −30%

B1: MDE3–119-4c (peptide)
peptide: cyclo(PRFFDAF[dP])
IC50 [5]: 3600 nM | IC50 [6]: 1300 nM

B2: MDE3–119-5c (peptide)
peptide: cyclo(PRFFEAF[dP])
IC50 [5]: 2500 nM | IC50 [6]: 1400 nM
